Results: patent US11845770B2, “Ascaroside derivatives and methods of use” (California Institute of Technology, priority 2019, dated 2023)

What was measured:
CYP3A4 = target: T1, CYP3A4 (Homo sapiens, UniProt P08684); assay: 5 in 1 CYP inhibition assay, CYP3A4; assay type: in vitro ADME; conditions: microsomes, probe midazolam (1′-hydroxylation), test compound 10 μM, n=2, read-out: inhibition of cytochrome P450 isoform 3A4
T1 construct: from tissue
Experimental: CYP450 dependent activities were determined using a marker substrate cocktail. For each reaction, enzyme activities in the presence and absence of test compound (10 μM) were measured in duplicate. A known inhibitor for each isoform, tested at a single concentration (3 μM, n=2), was included as positive control. Incubation mixtures containing microsomes, substrate, and standard inhibitor or test compound were warmed at 37° C. for 10 minutes. Reactions were initiated by addition of the NADPH and incubated for 10 min. [table] After incubation, ice cold acetonitrile was added to terminate the reaction. Generation of metabolites from the substrate reactions was determined by LC-MS/MS.

human naïve T cells = assay: Stimulation of blood derived naïve T cells with Der p1 (house dust mite) antigen; assay type: cell-based; conditions: human naïve T cells, Der p1 antigen 5 days; 0.1-100 μM; FIG. 14
Experimental: Naïve T cells from peripheral blood samples were collected and processed using MACSxpress® Whole Blood Pan T Cell Isolation Kit (Miltenyi Biotec), according to the manufacturer's protocol. Isolated naïve T cells were cultured in RPMI medium supplemented with 5% Fetal Bovine Serum (FBS) at 37° C. with 5% (v/v) CO2. T cells were seeded in 24 well plates at a density of 0.5×10^6 cells per well. The cells were pre-treated with the compounds (0, 0.1, 1.0, 10, 100 μM) for 1 hour prior to stimulation. Cells were stimulated with […] of Dermatophagoides pteronyssinus (Der p1) antigen. After 48 hours, fresh […] of Der p1 was added and continued incubating for a further 72 hours at 37° C. with 5% (v/v) CO2. Overall T cells were stimulated with […] of Der p1 antigen for 5 days before supernatants were collected and stored at −80° C. until quantitative detection assays are performed.
Human Interleukin-4 (IL-4), Interleukin-5 (IL-5), Interleukin-6 (IL-6), Interleukin-8 (IL-8), Interleukin-13 ([…]), Interleukin-23 (IL-23), and Interferon gamma (IFNγ) released from supernatants collected post stimulation were measured using Human Magnetic Luminex® Assay Kit. Human Transforming Growth Factor beta (TGFβ) was measured using an Enzyme-Linked Immunosorbent Assay (ELISA)-based analysis.

[1] = Stability in hepatocytes (human); assay type: in vitro ADME; conditions: cryopreserved human hepatocytes (suspension)
Experimental: 10 mM of 1 was provided as a 1000× stock solution in dimethylsulfoxide (DMSO), and the stock solution was diluted to 1 mM with DMSO in 96-well plates. 30 mM of positive compounds (7-ethoxycoumarin and 7-hydroxycoumarin) were provided as a 1000× stock solution in DMSO, and the stock solution was diluted to 3 mM with DMSO in 96-well plates. 20 μL of 1000× stock solution of each compound were pipetted and was mixed with 380 μL of 45% MeOH/H2O to obtain 50 μM of 1 and 150 μM of the positive control compound solutions to form 50× intermediate solutions. 20 μL of 50× intermediate solution of each compound were pipetted and was mixed with […] of pre-warmed incubation medium to obtain 5 μM of 1 and 15 μM of the positive control compound solutions to form 5× working solutions. The incubation medium was Williams' Medium E (no phenol red) containing 2 mM L-glutamine and 25 mM HEPES. 10 μL of 5× working solutions of each compound were pipetted into appropriate wells in a 96-well plate for time points of 0 minutes, 15 minutes, 30 minutes, 60 minutes, and 90 minutes in duplicates. The plates with compounds were kept warm in an incubator at 37° C.
A cell suspension was prepared by thawing cryopreserved cells, isolating the cells, and suspending the cells in thawing medium. […]
The remaining percentage of 1 after incubation was calculated according to the following equation. […]

T1 sequence (P08684 whole entry, canonical isoform): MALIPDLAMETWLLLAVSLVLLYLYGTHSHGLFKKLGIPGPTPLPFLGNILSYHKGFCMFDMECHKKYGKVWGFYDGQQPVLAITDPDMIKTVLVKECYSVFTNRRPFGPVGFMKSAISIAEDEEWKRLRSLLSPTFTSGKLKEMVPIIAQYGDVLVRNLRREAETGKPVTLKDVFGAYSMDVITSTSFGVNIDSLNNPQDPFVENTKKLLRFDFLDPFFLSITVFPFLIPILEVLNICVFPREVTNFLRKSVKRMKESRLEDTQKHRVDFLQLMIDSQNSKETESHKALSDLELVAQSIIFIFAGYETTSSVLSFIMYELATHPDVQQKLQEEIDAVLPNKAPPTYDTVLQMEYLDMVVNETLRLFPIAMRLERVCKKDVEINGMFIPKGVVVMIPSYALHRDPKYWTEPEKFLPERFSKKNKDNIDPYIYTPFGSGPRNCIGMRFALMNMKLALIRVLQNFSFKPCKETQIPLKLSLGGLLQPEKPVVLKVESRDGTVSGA

| Compound | inhibition at 10 min, 10 µM (CYP3A4) [%] | percent inhibition relative to Stimulated of IFNγ expression (human naïve T cells) | percent inhibition relative to Stimulated of IL-5 expression (human naïve T cells) | percent inhibition relative to Stimulated of TGFβ expression (human naïve T cells) | half-life at 1 µM [1] [h] |
| --- | --- | --- | --- | --- | --- |
| C[C@H](CC/C=C/C(=O)O)O[C@@H]1O[C@@H](C)[C@H](O)C[C@H]1O [ascr #7, reference compound] | 0 | statistically significant, robust blocking | dose-dependent inhibition | slight attenuation | > 3.61 |
| C[C@H](CC/C=C/C(=O)OC(C)(C)C)O[C@@H]1O[C@@H](C)[C@H](O)C[C@H]1O [Compound 1, tert-butyl (2E,6R)-6-{[(2R,3R,5R,6S)-3,5-dihydroxy-6-methyloxan-2-yl]oxy}hept-2-enoate] | 1 | in a statistically significant, dose-dependent manner | in a statistically significant, dose-dependent manner | in a statistically significant, dose-dependent manner | 1.77 |
